Literature values, collected in Sander's compilation of Henry's law constants (doi:10.1063/1.555654).

Assay: Henry solubility constant Hcp at 298.15 K (mol/(m3 Pa))
Details: reference: Mackay and Shiu (1981); cited value

Compound | Henry solubility constant Hcp
c1ccc(-c2ccccc2)cc1 [biphenyl] | 0.036
CCC(C)C [2-methylbutane] | 7.2e-06
Cc1cc(C)cc(C)c1 [1,3,5-trimethylbenzene] | 0.0017
CCc1cccc2ccccc12 [1-ethylnaphthalene] | 0.026
C=C(Cl)CCl [2,3-dichloropropene] | 0.0028
C=CCCC [1-pentene] | 2.5e-05
CC(C)CCC(C)(C)C [2,2,5-trimethylhexane] | 2.9e-06
Cc1cccc(C)c1 [1,3-dimethylbenzene] | 0.0014
C=C(C)CCC [2-methyl-1-pentene] | 3.6e-05
ClCC(Cl)Cl [1,1,2-trichloroethane] | 0.0083
ClC(Cl)C(Cl)Cl [1,1,2,2-tetrachloroethane] | 0.021
ClC(Cl)=C(Cl)Cl [tetrachloroethene] | 0.00043
Cc1ccc(C)c(C)c1 [1,2,4-trimethylbenzene] | 0.0017
c1ccc2c(c1)Cc1ccccc1-2 [2,3-benzindene] | 0.12
CC(Cl)(Cl)Cl [1,1,1-trichloroethane] | 0.00036
ClCC(Cl)(Cl)Cl [1,1,1,2-tetrachloroethane] | 0.0036
CCc1ccc(C)cc1 [1-ethyl-4-methylbenzene] | 0.002
CC(C)CC(C)(C)C [2,2,4-trimethylpentane] | 3e-06
BrC(Br)Br [tribromomethane] | 0.016
CCCCc1ccccc1 [butylbenzene] | 0.00077

Compound | Henry solubility constant Hcp
Clc1ccc(Cl)cc1 [1,4-dichlorobenzene] | 0.0063
Cl/C=C/CCl [trans-1,3-dichloropropene] | 0.0056
CCc1ccc2ccccc2c1 [2-ethylnaphthalene] | 0.012
ClC(Cl)C(Cl)(Cl)Cl [pentachloroethane] | 0.0045
Cc1cccc(C)c1C [1,2,3-trimethylbenzene] | 0.0031
CCCC(C)(C)C [2,2-dimethylpentane] | 3.1e-06
c1cc2c3c(cccc3c1)CC2 [acenaphthene] | 0.042
CC(C)CCl [1-chloro-2-methylpropane] | 0.0083
Cc1cccc2ccccc12 [1-methylnaphthalene] | 0.022
ClC1=C(Cl)[C@]2(Cl)[C@H]3[C@H]([C@@H]4C=C[C@H]3C4)[C@@]1(Cl)C2(Cl)Cl [aldrin] | 0.36
ClC1C(Cl)C(Cl)C(Cl)C(Cl)C1Cl (stereo unspecified) [γ-1,2,3,4,5,6-hexachlorocyclohexane] | 3.1
Brc1ccccc1 [bromobenzene] | 0.0048
CCCCC(C)C [2-methylhexane] | 2.9e-06
Cl/C=C\CCl [cis-1,3-dichloropropene] | 0.0042
CC(C)C(C)C [2,3-dimethylbutane] | 7.7e-06
C=CCCCCCC [1-octene] | 1e-05
Cc1ccc(C)cc1 [1,4-dimethylbenzene] | 0.0014
Cc1ccccc1 [methylbenzene] | 0.0015
c1ccc2c(c1)-c1cccc3cccc-2c13 [benzo[jk]fluorene] | 0.0045
CCCC(C)C [2-methylpentane] | 5.9e-06

Compound | Henry solubility constant Hcp
CC(C)CC(C)C [2,4-dimethylpentane] | 3.3e-06
CCC(C)(C)C [2,2-dimethylbutane] | 5.8e-06
CCC(C)C(C)C (stereo unspecified) [2,3-dimethylpentane] | 5.7e-06
CC1CCC(C)(C)C1 (stereo unspecified) [1,1,3-trimethylcyclopentane] | 6.3e-06
C#CCC [1-butyne] | 0.00052
C=CC(=C)C [2-methyl-1,3-butadiene] | 0.00013
BrCBr [dibromomethane] | 0.031
Cc1ccc(C(C)C)cc1 [1-methyl-4-(1-methylethyl)-benzene] | 0.0013
C=CCCl [3-chloro-1-propene] | 0.00091
ClC(Cl)(Cl)Cl [tetrachloromethane] | 0.0005
Clc1ccccc1 [chlorobenzene] | 0.0029
CC(C)C [2-methylpropane] | 8.3e-06
COP(=S)(Oc1cc(Cl)c(Br)cc1Cl)c1ccccc1 (stereo unspecified) [leptophos] | 3.7
Cc1ccccc1C [1,2-dimethylbenzene] | 0.002
Clc1ccc(C(c2ccc(Cl)cc2)C(Cl)(Cl)Cl)cc1 [1,1,1-trichloro-2,2-bis-(4-chlorophenyl)-ethane] | 0.19
Clc1cccc(Cl)c1 [1,3-dichlorobenzene] | 0.0028
CC(C)C(C)C(C)C [2,3,4-trimethylpentane] | 5.3e-06
ClC1=C(Cl)[C@]2(Cl)[C@@H]3[C@@H]4C[C@@H]([C@H]5O[C@@H]45)[C@@H]3[C@@]1(Cl)C2(Cl)Cl [dieldrin] | 0.91
C=CC=C [1,3-butadiene] | 0.00013
COP(=S)(OC)Oc1ccc([N+](=O)[O-])cc1 [methylparathion] | 50

Next, values leading:

Henry solubility constant Hcp | Compound
1.6e-05 | C=CCC(C)C [4-methyl-1-pentene]
2.4e-05 | C/C=C/CCCC [trans-2-heptene]
2.7e-05 | CC1CCCC1 [methylcyclopentane]
4.3e-06 | CCCCCCC [heptane]
1.3e-06 | CCCCCCCCCCCC [dodecane]
0.0077 | Ic1ccccc1 [iodobenzene]
1e-06 | CCCCC(C)CCC (stereo unspecified) [4-methyloctane]
2.7e-06 | CCCCC(C)CC (stereo unspecified) [3-methylheptane]
0.0038 | ClCCl [dichloromethane]
5.4e-06 | CCCCCC1CCCC1 [pentylcyclopentane]
2e-06 | CCCCCCCCC [nonane]
5.6e-05 | C1CCCCC1 [cyclohexane]
0.0018 | c1ccccc1 [benzene]
2.5e-05 | CC1CCCCC1 [methylcyclohexane]
0.0003 | CC(C)Cc1ccccc1 [(2-methylpropyl)-benzene]
0.25 | c1ccc2c(c1)ccc1ccccc12 [phenanthrene]
2.8e-05 | C[C@@H]1CCCC[C@@H]1C [cis-1,2-dimethylcyclohexane]
0.0009 | C#CC [propyne]
0.0014 | CCCc1ccccc1 [propylbenzene]
2.7e-06 | CC(C)(C)C [dimethylpropane]
0.0016 | Fc1ccccc1 [fluorobenzene]

Henry solubility constant Hcp | Compound
8e-06 | CCCCC [pentane]
0.00083 | CC(C)(C)c1ccccc1 [(1,1-dimethylethyl)-benzene]
1.1e-05 | C[C@H]1CC[C@H](C)CC1 [trans-1,4-dimethylcyclohexane]
0.17 | c1ccc2cc3ccccc3cc2c1 [anthracene]
0.00071 | CCC(C)c1ccccc1 (stereo unspecified) [(1-methylpropyl)-benzene]
5.4e-06 | CCC(C)(C)CC [3,3-dimethylpentane]
4.7e-05 | C=CC [propene]
0.023 | c1ccc2ccccc2c1 [naphthalene]
5.9e-06 | CCCCCC [hexane]
1e-05 | CCCC [butane]
4.6e-05 | C=C [ethene]
0.0017 | CCCCCc1ccccc1 [pentylbenzene]
5.4e-05 | C1CCCC1 [cyclopentane]
5.8e-06 | CCC(C)CC [3-methylpentane]
0.0013 | CCc1ccccc1 [ethylbenzene]
0.005 | CCCl [chloroethane]
1.4e-06 | CCCCCCCCCC [decane]
4.2e-06 | CCCC(C)CC (stereo unspecified) [3-methylhexane]
1.8e-05 | C=CC(C)C [3-methyl-1-butene]
3.3e-06 | CCCCCCCC [octane]
